Measured values as given in patent US20240116933A1, “INDAZOLE AND PYRAZOLOPYRIDINE COMPOUNDS AS INHIBITORS OF NLRP3 INFLAMMASOME” (BioAge Labs, Inc., priority 2022, published 2024).

Molecular target: T1, NLRP3 inflammasome (Homo sapiens, UniProt Q96P20)
T1 construct: endogenous in cells; host or cells: THP-1 cells (PMA-differentiated, LPS-primed, nigericin-stimulated)
Experiment: THP-1 Cell-Based NLRP3 Activation Assay
Settings: THP-1 cells, PMA, 100 ng/mL LPS 3 hrs, 30 min pre-incubation with test compound, 10 μM nigericin 1 hr
Protocol: THP-1 cells are cultured in complete media (CM) until they reach logarithmic growth and achieve a viability >90%. CM is composed of RPMI-1640 (+Glutamax)/10% fetal bovine serum/55 μM β-mercaptoethanol/pen/strep. Cells are spun down and resuspended to 1,000,000 cells/mL in CM containing either 20 nM or 500 nM PMA. 150,000 cells […] are then added to each well of a 96-well TC plate and incubated for either 24 hr or 3 hr, respectively, in a standard cell culture incubator (37° C.; 5% CO2). After this incubation, the plate is tilted and media carefully removed. 200 μL of CM containing 100 ng/mL LPS is then added to the wells and the cells incubated an additional 3 hrs. The media is again removed and replaced with Opti-Mem medium containing pre-determined dilutions of test compounds in replicate wells. After a 30 min pre-incubation with test compound, 10 μM nigericin (final concentration) in Opti-Mem medium with the corresponding concentration of compound is added to the wells for an additional 1 hr. Positive control wells contain 10 μM nigericin in Opti-Mem in the absence of test compound, while negative control wells contain Opti-Mem only. […] Once supernatants are removed, the relative viability of adherent cells in the 96-well TC plate are determined using a CellTiter-Glo® luminescent cell viability assay (Promega).

T1 sequence (Q96P20 whole entry): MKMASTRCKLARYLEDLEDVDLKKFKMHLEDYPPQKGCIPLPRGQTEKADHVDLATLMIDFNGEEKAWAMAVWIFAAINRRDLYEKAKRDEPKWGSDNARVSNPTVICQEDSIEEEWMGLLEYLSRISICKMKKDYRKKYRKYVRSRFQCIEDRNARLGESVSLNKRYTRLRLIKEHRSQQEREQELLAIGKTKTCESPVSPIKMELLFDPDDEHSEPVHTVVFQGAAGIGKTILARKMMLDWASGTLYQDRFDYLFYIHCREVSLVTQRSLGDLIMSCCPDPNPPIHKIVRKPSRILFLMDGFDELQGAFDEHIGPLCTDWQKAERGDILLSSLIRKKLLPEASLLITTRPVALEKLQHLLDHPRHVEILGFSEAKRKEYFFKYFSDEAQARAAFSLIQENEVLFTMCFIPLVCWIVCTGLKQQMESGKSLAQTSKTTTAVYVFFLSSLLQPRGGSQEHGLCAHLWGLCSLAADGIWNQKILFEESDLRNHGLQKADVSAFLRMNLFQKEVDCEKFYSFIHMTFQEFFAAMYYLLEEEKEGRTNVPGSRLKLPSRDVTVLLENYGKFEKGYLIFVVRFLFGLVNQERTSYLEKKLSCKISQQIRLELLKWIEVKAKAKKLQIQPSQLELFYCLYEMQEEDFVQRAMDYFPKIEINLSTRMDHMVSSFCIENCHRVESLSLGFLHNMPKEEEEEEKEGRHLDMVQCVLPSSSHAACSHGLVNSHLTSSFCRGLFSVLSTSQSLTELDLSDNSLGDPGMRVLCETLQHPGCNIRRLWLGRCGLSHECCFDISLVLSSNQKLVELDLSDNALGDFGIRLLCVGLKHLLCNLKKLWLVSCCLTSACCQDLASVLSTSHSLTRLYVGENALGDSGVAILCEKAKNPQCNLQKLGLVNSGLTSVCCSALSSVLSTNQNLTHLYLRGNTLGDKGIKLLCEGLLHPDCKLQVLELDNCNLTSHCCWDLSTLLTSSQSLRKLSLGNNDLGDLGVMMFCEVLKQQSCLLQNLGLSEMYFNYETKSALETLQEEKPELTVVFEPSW

Row | SMILES | IC50 [µM]
1 | CCOc1cc(C(=O)NCc2cnc(CO)c3cn[nH]c23)ccc1-c1cccc(F)c1 [Compound 150] | < 1
2 | CCOc1cc(C(=O)N(C)Cc2cnc(C(C)O)c3cn[nH]c23)ccc1-c1nc(Cl)cs1 (centres unmarked) [Compound 158] | < 1
3 | CCOc1cc(C(=O)N(C)[C@H](C)c2c(C)ncc3cn[nH]c23)ccc1-c1cccc(F)c1 [Compound 044] | < 50
4 | CCOc1cc(C(=O)N(C)[C@H](C)c2cnc(CO)c3cn[nH]c23)ccc1-c1cccc(F)c1 [Compound 159] | < 1
5 | CCOc1cc(C(=O)N(C)Cc2cnc(C(C)O)c3cn[nH]c23)ccc1-c1cc(F)cc(F)c1 (centres unmarked) [Compound 026] | < 1
6 | CCOc1cc(C(=O)N(C)Cc2cnc(C(C)O)c3cn[nH]c23)ccc1-c1cccc(C#N)c1 (centres unmarked) [Compound 029] | < 1
7 | CCOc1cc(C(=O)N(C)[C@@H](C)c2cccc3cn[nH]c23)ccc1-c1cccc(F)c1 [Compound 059] | < 1
8 | CCOc1nc(C(=O)N(C)[C@H](C)c2cncc3cn[nH]c23)ccc1-c1cccc(F)c1 [Compound 057] | < 50
9 | CCOc1cc(C(=O)N(C)[C@H](C)c2cnc(C)c3cn[nH]c23)ccc1-c1cccc(F)c1 [Compound 050] | < 1
10 | CN(Cc1cnc(CO)c2cn[nH]c12)C(=O)c1cc(Cl)c(-c2cccc(F)c2)c(OC2CC2)c1 [Compound 162] | < 1
11 | CCOc1cc(C(=O)N(C)Cc2cnc(C(O)C(F)(F)F)c3cn[nH]c23)ccc1-c1cccc(F)c1 (centres unmarked) [Compound 171] | < 1
12 | CCOc1cc(C(=O)N(C)[C@H](C)c2c(O)ccc3cn[nH]c23)ccc1-c1cccc(F)c1 (single isomer, unassigned) [Compound 184] | < 10
13 | Cc1nc(C)c2cn[nH]c2c1CN(C)C(=O)c1cc(F)c(-c2cccc(Cl)c2)c(OC2CC2)c1 [Compound 120] | < 1
14 | CCOc1nc(C(=O)N(C)[C@@H](C)c2ccc(CF)c3cn[nH]c23)ccc1-c1cccc(F)c1 [Compound 074] | < 50
15 | CCOc1cc(C(=O)N(C)Cc2c(F)c(O)cc3cn[nH]c23)ccc1-c1cccc(F)c1 [Compound 148] | < 1
16 | Cc1ncc2cn[nH]c2c1CN(C)C(=O)c1cc(F)c(-c2cccc(F)c2)c(OC2CC2)c1 [Compound 062] | < 1
17 | CCOc1cc(C(=O)N(C)Cc2ccc(CO)c3cn[nH]c23)ccc1-c1cccc(F)c1 [Compound 066] | < 1
18 | CCOc1cc(C(=O)N(C)Cc2c(O)ccc3cn[nH]c23)ccc1-c1cccc(F)c1 [Compound 036] | < 1
19 | CCOc1cc(C(=O)N(C)Cc2cnc(C(C)O)c3cn[nH]c23)cc(F)c1-c1ccsc1 (centres unmarked) [Compound 088] | < 1
20 | CN(Cc1cnc(CO)c2cn[nH]c12)C(=O)c1cc(F)c(-c2cccc(Cl)c2)c(OC2CC2)c1 [Compound 047] | < 1
21 | CCOc1cc(C(=O)N(CC)Cc2cnc(C(C)O)c3cn[nH]c23)ccc1-c1cccc(Cl)c1 (centres unmarked) [Compound 176] | < 1
22 | CCOc1cc(C(=O)N(C)Cc2cc(C(=O)OC)cc3cn[nH]c23)ccc1-c1cccc(F)c1 [Compound 008] | < 10
23 | CCOc1nc(C(=O)N(C)Cc2cc(O)cc3cn[nH]c23)ccc1-c1cccc(F)c1 [Compound 128] | < 10
24 | CCOc1cc(C(=O)N(C)Cc2c(C(C)O)ncc3cn[nH]c23)ccc1-c1cccc(F)c1 (centres unmarked) [Compound 135] | < 1
25 | CCOc1cc(C(=O)N(C)Cc2cnc(C(C)O)c3cn[nH]c23)cc(F)c1-c1cccc(C#N)c1 (centres unmarked) [Compound 090] | < 10
26 | CCOc1cc(C(=O)N(C)[C@@H](C)c2cc(F)cc3cn[nH]c23)ccc1-c1cccc(F)c1 [Compound 042] | < 1
27 | CC(O)c1ncc(CN(C)C(=O)c2cc(F)c(-c3cccc(C#N)c3)c(OC3CC3)c2)c2[nH]ncc12 (centres unmarked) [Compound 091] | < 1

Row | SMILES | IC50 [µM]
28 | CCOc1cc(C(=O)N(C)Cc2cnc(C)c3cn[nH]c23)cc(CF)c1-c1cccc(F)c1 [Compound 125] | < 10
29 | CCOc1cc(C(=O)N(C)Cc2cc(CO)cc3cn[nH]c23)ccc1-c1cccc(F)c1 [Compound 069] | < 1
30 | CCOc1cc(C(=O)N(C)Cc2cnc(C(C)O)c3cn[nH]c23)cc(Cl)c1-c1cccc(Cl)c1 (centres unmarked) [Compound 166] | < 1
31 | CN(Cc1cnc(CF)c2cn[nH]c12)C(=O)c1cc(F)c(-c2cccc(Cl)c2)c(OC2CC2)c1 [Compound 071] | < 1
32 | CCOc1cc(C(=O)N(C)Cc2cnc(C(C)O)c3cn[nH]c23)cc(F)c1-c1cc(C#N)cs1 (centres unmarked) [Compound 072] | < 10
33 | CCOc1cc(C(=O)N(C)Cc2cnc(C(C)O)c3cn[nH]c23)cc(Cl)c1-c1cccc(F)c1 (centres unmarked) [Compound 156] | < 50
34 | CCCOc1cc(C(=O)N(C)Cc2cnc(CO)c3cn[nH]c23)ccc1-c1cccc(F)c1 [Compound 147] | < 1
35 | CCOc1cc(C(=O)N(C)[C@H](C)c2cc(F)cc3cn[nH]c23)ccc1-c1cccc(F)c1 [Compound 043] | < 50
36 | CC(O)c1ncc(CN(C)C(=O)c2ccc(-c3ccc(Cl)s3)c(OC3CC3)c2)c2[nH]ncc12 (centres unmarked) [Compound 168] | < 1
37 | CCOc1cc(C(=O)N(C)Cc2cnc(CO)c3cn[nH]c23)cc(F)c1-c1cc(F)cc(F)c1 [Compound 131] | < 1
38 | CCOc1cc(C(=O)N(C)Cc2cnc(C)c3cn[nH]c23)ccc1-c1cccs1 [Compound 170] | < 1
39 | CC(O)c1ncc(CN(C)C(=O)c2ccc(-c3cccc(Cl)c3)c(OC3CC3)c2)c2[nH]ncc12 (centres unmarked) [Compound 101] | < 1
40 | Cc1ncc([C@@H](C)N(C)C(=O)c2cc(F)c(-c3cccc(F)c3)c(OC3CC3)c2)c2[nH]ncc12 [Compound 034] | < 10
41 | CN(Cc1cnc(CO)c2cn[nH]c12)C(=O)c1ccc(-c2cccc(Cl)c2)c(OC2COC2)c1 [Compound 108] | < 1
42 | CCOc1cc(C(=O)N(C)[C@@H](C)c2cnc(C)c3cn[nH]c23)ccc1-c1cccc(F)c1 [Compound 049] | < 50
43 | CC(O)c1ncc(CN(C)C(=O)c2cc(F)c(-c3cccc(Cl)c3)c(OC3CC3)c2)c2[nH]ncc12 (centres unmarked) [Compound 115] | < 1
44 | CCOc1nc(C(=O)N(C)[C@@H](C)c2cncc3cn[nH]c23)ccc1-c1cccc(F)c1 [Compound 056] | < 1
45 | CCOc1cc(C(=O)N(C)Cc2cnc(CO)c3cn[nH]c23)cc(F)c1-c1cccs1 [Compound 106] | < 1
46 | CCOc1cc(C(=O)N(C)[C@@H](C)c2c(C)ncc3cn[nH]c23)ccc1-c1cccc(F)c1 [Compound 045] | < 10
47 | CCOc1cc(C(=O)N(C)Cc2cc(O)c(C)c3cn[nH]c23)ccc1-c1cccc(F)c1 [Compound 015] | < 1
48 | CN(Cc1cnc(CO)c2cn[nH]c12)C(=O)c1cc(Cl)c(-c2cccc(Cl)c2)c(OC2CC2)c1 [Compound 161] | < 1
49 | CCOc1cc(C(=O)N(C)Cc2cnc(C(C)O)c3cn[nH]c23)ccc1-c1nccs1 (centres unmarked) [Compound 149] | < 10
50 | CCOc1cc(C(=O)N(C)Cc2cnc(CO)c3cn[nH]c23)ccc1-c1ccc(Cl)s1 [Compound 164] | < 1
51 | CC(O)c1ncc(CN(C)C(=O)c2ccc(-c3cccs3)c(OC3CC3)c2)c2[nH]ncc12 (centres unmarked) [Compound 083] | < 10
52 | CCOc1cc(C(=O)N(C)Cc2cc(O)cc3cn[nH]c23)cc(F)c1-c1cccc(F)c1 [Compound 098] | < 1
53 | CCOc1cc(C(=O)N(C)Cc2cnc(C(C)O)c3cn[nH]c23)cc(F)c1-c1cccc(F)c1 (centres unmarked) [Compound 118] | < 1
